The target of one assay is LasB (Pseudomonas aeruginosa, UniProt Q02RJ6). As to the kind of experiment: biochemical. Also noted: species or system P. aeruginosa. To be noted: IC50 against LasB.
Sequence of LasB (Q02RJ6 198-498): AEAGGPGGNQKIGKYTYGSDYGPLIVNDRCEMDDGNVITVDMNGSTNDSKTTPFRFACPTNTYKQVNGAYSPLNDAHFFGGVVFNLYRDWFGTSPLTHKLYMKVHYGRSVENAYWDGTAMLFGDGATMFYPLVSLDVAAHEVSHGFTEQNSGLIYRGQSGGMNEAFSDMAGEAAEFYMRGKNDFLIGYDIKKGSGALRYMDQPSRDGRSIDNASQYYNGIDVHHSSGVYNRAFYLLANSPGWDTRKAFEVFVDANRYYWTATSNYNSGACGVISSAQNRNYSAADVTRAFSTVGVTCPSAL
As for `CC(C)CC(C(=O)Nc1cnc(Cl)nc1)P(=O)(O)O` (centres unmarked) [Example 86], the IC50 (as a rule, the concentration at which inhibition is half-maximal) was 498 ± 25 nM.

Compound `CC(C)CC(C(=O)N[C@H](C(=O)Nc1ccc(Cl)c(Cl)c1)C1CCCCC1)P(=O)(O)O` (some centres unmarked) [Example 156] registered an IC50 of 12 nM.

As for `Cc1ccc(NC(=O)C(CC(C)C)P(=O)(O)O)c(C)c1` (centres unmarked) [Example 69], half-maximal inhibition (IC50) was put at 84 ± 3 nM.

With `CC(C)CC(C(=O)Nc1ccc2ccccc2c1)P(=O)(O)O` (centres unmarked) [Example 76], the IC50 stood at 64 ± 10 nM.

`CC(C)C[C@H](C(=O)N[C@@H](Cc1cccnc1)C(=O)Nc1ccc(Cl)c(Cl)c1)P(=O)(O)O` [Example 160] displayed an IC50 of 573 ± 16 nM.

`CC(C)CC(C(=O)NC1CCN(Cc2ccc(Cl)cc2)CC1)P(=O)(O)O` (centres unmarked) [Example 146] showed an IC50 of 2270 ± 70 nM.

`CC(C)CC(C(=O)Nc1ccc(OCc2ccc(Cl)c(Cl)c2)cc1)n1nccn1` (centres unmarked) [Example 179] came in with an IC50 of 30000 nM.

`CCCCC(S)C(=O)Nc1ccc(OC)cc1` (centres unmarked) [Example 30] yielded an IC50 of 2800 ± 300 nM.

`CC(C)CC(C(=O)N1CCN(c2ncc(Br)cn2)CC1)P(=O)(O)O` (centres unmarked) [Example 102] registered an IC50 of 35800 ± 1750 nM.

Consider `CC[C@H](C)[C@H](NC(=O)C(CC(C)C)P(=O)(O)O)C(=O)Nc1ccc(Cl)c(Cl)c1` (some centres unmarked) [Example 154], for which the IC50 was 13 ± 1 nM.

`CC(C)CC(C(=O)Nc1ccc(F)cc1)P(=O)(O)O` (centres unmarked) [Example 70] yielded an IC50 of 93 ± 22 nM.

For the compound `O=C(Nc1ccccc1)C(S)Cc1ccccc1` (single isomer, unassigned) [Example 1 E2, 2-Mercapto-N,3-diphenylpropanamide], 1000 ± 100 nM corresponded to half-maximal inhibition (IC50).

Turning to `CCCC(S)C(=O)Nc1ccc(C(C)=O)cc1` (centres unmarked) [Example 28], it took 2600 ± 500 nM to reach half-maximal inhibition (IC50).

For the compound `CC(C)CC(C(=O)N[C@H](C(=O)Nc1ccc(Cl)c(Cl)c1)c1ccccc1)P(=O)(O)O` (some centres unmarked) [Example 165], the midpoint of inhibition, the IC50, lay at 100 ± 3 nM.

`COc1ccc(NC(=O)C(C)S)cc1` (centres unmarked) [Example 16] had an IC50 of 45000 ± 1000 nM.

In turn, `CC(=O)c1ccc(NC(=O)C(CC(C)C)P(=O)(O)O)cc1` (centres unmarked) [Example 67] had an IC50 of 40 ± 12 nM.

Turning to `CC(C)CC(C(=O)N[C@@H](CC1CCOCC1)C(=O)Nc1ccc(Cl)c(Cl)c1)P(=O)(O)O` (some centres unmarked) [Example 169], the half-inhibitory concentration (IC50) came to 378 ± 8 nM.

As for `CC(C)CC(C(=O)N[C@H]1CCCN(Cc2ccc(Cl)cc2)C1)P(=O)(O)O` (mixture of isomers) [Example 147, (1-(((S)-1-(4-Chlorobenzyl)piperidin-3-yl)amino)-4-methyl-1-oxopentan-2-yl)phosphonic acid], the IC50 is 5180 ± 530 nM.

For `CC(C)CC(C(=O)Nc1ccc(NC(=O)c2nc(Cl)cs2)cc1)P(=O)(O)O` (centres unmarked) [Example 129], half-maximal inhibition (IC50) required 49 ± 2 nM.

Consider `CC(C)C[C@@H](C(=O)N[C@@H](Cc1cccnc1)C(=O)Nc1ccc(Cl)c(Cl)c1)P(=O)(O)O` [Example 159], for which the IC50 turned out to be 1500 ± 60 nM.

On to `Cc1ccc(NC(=O)C(CC2CCCCC2)P(=O)(O)O)cc1` (centres unmarked) [Example 80], for which the concentration for half-maximal inhibition (IC50) turned out to be 2030 ± 110 nM.

Take `CC(=O)c1ccc(NC(=O)C(C)S)cc1` (centres unmarked) [Example 17]: the midpoint of inhibition, the IC50, lay at 89000 ± 9000 nM.

The compound `CC(C)C[C@@H](C(=O)N[C@@H](Cc1ccccn1)C(=O)Nc1ccc(Cl)c(Cl)c1)P(=O)(O)O` [Example 161] showed an IC50 of 1360 ± 50 nM.

Regarding `COc1ccc(NC(=O)C(S)CC2CC2)cc1` (centres unmarked) [Example 46], the IC50 is 3900 ± 600 nM.

For the compound `COc1ccc(NC(=O)C(S)CC(C)C)cc1` (centres unmarked) [Example 34], inhibition was half-maximal at 360 ± 110 nM (IC50).

`CCCC(S)C(=O)Nc1ccccc1` (centres unmarked) [Example 24] displayed an IC50 of 4800 ± 400 nM.

Consider `CC(C)CC(S)C(=O)Nc1nc2ccccc2s1` (centres unmarked) [Example 62], for which the IC50 was 650 ± 140 nM.

On to `CC(C)CC(C(=O)Nc1ccc(NC(=O)C(Cc2ccccc2)c2ccccc2)cc1)P(=O)(O)O` (centres unmarked) [Example 120], for which 30 ± 1 nM corresponded to half-maximal inhibition (IC50).

With `Cc1ccc(NC(=O)C(Cc2ccccc2)P(=O)(O)O)cc1` (centres unmarked) [Example 78], half-maximal inhibition (IC50) was put at 137 ± 33 nM.

`CC(C)CC(C(=O)N[C@@H](CC1CC1)C(=O)Nc1ccc(Cl)c(Cl)c1)P(=O)(O)O` (some centres unmarked) [Example 164] showed an IC50 of 27 ± 1 nM.

For `O=C(Nc1ccccc1)C(S)Cc1ccccc1` (single isomer, unassigned) [Example 1 E1, 2-Mercapto-N,3-diphenylpropanamide], the IC50 was 4800 ± 700 nM.

In turn, `CC(C)CC(C(=O)Nc1ccc(C(F)(F)F)cc1)P(=O)(O)O` (centres unmarked) [Example 68] returned an IC50 of 26 ± 8 nM.

Regarding `COCC(S)C(=O)Nc1ccc(OC)cc1` (centres unmarked) [Example 50], half-maximal inhibition (IC50) was put at 17000 ± 1000 nM.

On to `CC(C)CC(C(=O)N[C@@H](CC1CCCCC1)C(=O)Nc1ccc(Cl)c(Cl)c1)P(=O)(O)O` (some centres unmarked) [Example 158], for which it took 242 ± 21 nM to reach half-maximal inhibition (IC50).

Compound `COc1ccc(NC(=O)C(S)C(C)C)cc1` (centres unmarked) [Example 22] gave an IC50 of 16000 ± 1000 nM.

`CC(C)CC(C(=O)N1CCC[C@H]1C(=O)Nc1ccc(Cl)c(Cl)c1)P(=O)(O)O` (some centres unmarked) [Example 166]: it took 2540 ± 69 nM to reach half-maximal inhibition (IC50).

`CC(C)CC(C(=O)Nc1ccc(S(=O)(=O)C(F)(F)F)cc1)P(=O)(O)O` (centres unmarked) [Example 74] gave an IC50 of 28 ± 6 nM.

Compound `CC(C)C(S)C(=O)Nc1ccc(Cl)c(Cl)c1` (centres unmarked) [Example 21] displayed an IC50 of 2500 ± 300 nM.

Compound `CC(C)CC(C(=O)Nc1ccc(Cl)nc1)P(=O)(O)O` (centres unmarked) [Example 83] registered an IC50 of 1130 ± 20 nM.

On to `O=C(Nc1ccc(C(F)(F)F)cc1)C(CC1CCCCC1)P(=O)(O)O` (centres unmarked) [Example 81], for which half-maximal inhibition (IC50) was put at 1870 ± 30 nM.

The compound `CC(=O)c1ccc(NC(=O)C(S)C(C)C)cc1` (centres unmarked) [Example 23] had an IC50 of 22000 nM.

For `CC(C)CC(C(=O)N[C@@H]1CCCN(Cc2ccc(Cl)cc2)C1)P(=O)(O)O` (some centres unmarked) [Example 148], the IC50 is 8360 ± 260 nM.

Turning to `COCC(S)C(=O)Nc1ccc(Cl)c(Cl)c1` (centres unmarked) [Example 49], the IC50 came to 2400 ± 600 nM.

Regarding `CC(C)CC(C(=O)Nc1ccc(C(N)=O)nc1)P(=O)(O)O` (centres unmarked) [Example 84], the IC50 is 223 ± 16 nM.

`CC(C)CC(C(=O)Nc1ccc(Cl)cc1)P(=O)(O)O` (centres unmarked) [Example 71]: it took 48 ± 4 nM to reach half-maximal inhibition (IC50).

Consider `COc1ccc(NC(=O)C(S)CC2CCCCC2)cc1` (centres unmarked) [Example 48], for which it took 2600 ± 1200 nM to reach half-maximal inhibition (IC50).

`CC(C)CC(C(=O)Nc1ccc(Cl)c(Cl)c1)n1nccn1` (centres unmarked) [Example 178] displayed an IC50 of 5500 ± 200 nM.

Turning to `O=C(Nc1ccc(C(F)(F)F)cc1)C(Cc1ccccc1)P(=O)(O)O` (centres unmarked) [Example 79], the IC50 is 102 ± 1 nM.

With `Cc1cccc(NC(=O)C(S)Cc2ccccc2)c1` (centres unmarked) [Example 7], the IC50 came to 980 ± 430 nM.

Consider `CC(C)CC(S)C(=O)Nc1ccc(Cl)c(Cl)c1` (centres unmarked) [Example 31], for which the IC50 came out at 2600 ± 200 nM.

`CC(C)C[C@H](C(=O)N[C@@H](Cc1ccccn1)C(=O)Nc1ccc(Cl)c(Cl)c1)P(=O)(O)O` [Example 162]: 416 ± 23 nM corresponded to half-maximal inhibition (IC50).

Regarding `CCCC(S)C(=O)Nc1ccc(Cl)c(Cl)c1` (centres unmarked) [Example 26], 4000 ± 600 nM corresponded to half-maximal inhibition (IC50).

For `COc1cccc(NC(=O)C(S)CC(C)C)c1` (centres unmarked) [Example 33], half-maximal inhibition (IC50) required 560 ± 30 nM.

Take `CC(C)CC(C(=O)N[C@@H](C(=O)Nc1ccc(Cl)c(Cl)c1)C(C)C)P(=O)(O)O` (some centres unmarked) [Example 167]: the IC50 stood at 11 nM.

Compound `CC(C)CC(C(=O)Nc1cnc(Br)nc1)P(=O)(O)O` (centres unmarked) [Example 87] displayed an IC50 of 384 ± 2 nM.

The assay is the same for the next values; noted with them: read-out: IC50 against LasB.
With `COC(=O)c1ccsc1NC(=O)C(S)Cc1ccccc1` (centres unmarked) [Example 59], the IC50 came to 8000 ± 1000 nM.

Regarding `O=C(Nc1nccs1)C(S)Cc1ccccc1` (centres unmarked) [Example 58], the IC50 amounted to 1600 ± 100 nM.

For the compound `O=C(Nc1cccnc1)C(S)Cc1ccccc1` (centres unmarked) [Example 60], the IC50 was 1200 ± 100 nM.

With `Cc1ccc(CC(S)C(=O)Nc2ccccc2)cc1` (centres unmarked) [Example 13], the IC50 is 2800 ± 300 nM.

(Values after patent publication US20230321123A1, “INHIBITORS OF PSEUDOMONAS AERUGINOSA VIRULENCE FACTOR LasB” (Helmholtz-Zentrum Für Infektionsforschung GmbH, priority 2020, published 2023).)
